Results on three compounds are retold here after US20120142766A1, “SUBSTITUTED 1,3-DIOXANES AND THEIR USES” (EVOLVA SA, priority 2007, published 2012).

By pIC50 is commonly meant −log10 of the IC50, conventionally taken in molar units. Broadly, the inhibition is the drop in the measured response relative to a control, in per cent. The term pKi denotes −log10 of the Ki, conventionally taken in molar units.

pIC50, pKi: −log10 of the molar value.

One assay addresses T1, Thromboxane synthase (Homo sapiens, UniProt P24557).
T1 construct: Human Platelet Thromboxane Synthase Assay; from tissue; host or cells: human platelets
T1 sequence (P24557 1-533): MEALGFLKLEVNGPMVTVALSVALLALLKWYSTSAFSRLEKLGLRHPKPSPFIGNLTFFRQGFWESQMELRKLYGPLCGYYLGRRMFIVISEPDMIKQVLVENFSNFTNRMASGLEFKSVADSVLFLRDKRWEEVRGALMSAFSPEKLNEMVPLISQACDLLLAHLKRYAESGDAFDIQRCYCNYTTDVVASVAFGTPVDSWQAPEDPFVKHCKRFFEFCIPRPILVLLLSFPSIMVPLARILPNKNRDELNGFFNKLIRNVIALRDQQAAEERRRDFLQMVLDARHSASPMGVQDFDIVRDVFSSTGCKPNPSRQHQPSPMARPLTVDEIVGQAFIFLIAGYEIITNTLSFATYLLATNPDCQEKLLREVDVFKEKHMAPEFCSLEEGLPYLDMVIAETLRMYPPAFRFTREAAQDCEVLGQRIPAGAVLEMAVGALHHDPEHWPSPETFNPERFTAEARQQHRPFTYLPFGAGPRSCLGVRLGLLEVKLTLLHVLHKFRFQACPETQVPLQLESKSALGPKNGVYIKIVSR
The assay can be described thus: Human platelet thromboxane synthase assay. It counts as biochemical. The protocol:
The compounds were tested for thromboxane synthase inhibition essentially as described by Borsch-Haubold A G, Pasquet S, Watson S P. (1998) Direct inhibition of cyclooxygenase-1 and -2 by the kinase inhibitors SB 203580 and PD 98059. […] 1. Imidazole derivatives. J Med. Chem. (10):1139-48 according to the following:
Pre-incubation time, temp: 15 minutes at 25° C. Incubation time, temp: 3 minutes at 25° C.
Incubation Buffer: 10 mM Tris-HCl, pH 7.4
Quantification Method: EIA quantification of TxB2

Assay [1] concerns the target T2, Human Recombinant (E. coli) PPARgamma (Homo sapiens, UniProt P37231).
T2 construct: host or cells: E. coli
T2 sequence (P37231 1-505): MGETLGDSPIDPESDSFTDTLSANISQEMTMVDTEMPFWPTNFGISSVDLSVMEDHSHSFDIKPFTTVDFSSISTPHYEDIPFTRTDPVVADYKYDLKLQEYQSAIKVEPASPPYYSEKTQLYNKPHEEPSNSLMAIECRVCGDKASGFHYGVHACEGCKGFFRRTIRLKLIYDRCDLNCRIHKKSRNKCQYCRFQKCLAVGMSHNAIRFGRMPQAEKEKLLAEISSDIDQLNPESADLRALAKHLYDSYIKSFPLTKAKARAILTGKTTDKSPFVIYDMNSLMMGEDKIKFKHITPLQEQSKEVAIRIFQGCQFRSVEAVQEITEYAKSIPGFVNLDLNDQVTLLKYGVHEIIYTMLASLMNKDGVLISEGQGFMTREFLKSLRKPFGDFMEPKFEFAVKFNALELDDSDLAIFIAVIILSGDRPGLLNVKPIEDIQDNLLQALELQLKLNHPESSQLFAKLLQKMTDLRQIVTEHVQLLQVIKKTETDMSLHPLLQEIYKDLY
Put plainly: PPAR gamma binding assay ([3H]-rosiglitazone). To be noted: for pKi / pIC50: [3H]-rosiglitazone 10 nM; for pKi: Cheng Prusoff, read-out: PPARγ binding Ki; for pIC50: read-out: PPARγ binding IC50. As for the experimental part:
Incubation: 120 min. at 4° C.
The results are expressed as a percent of control specific binding ((measured specific binding/control specific binding)×100) obtained in the presence of the test compounds. The IC50 values (concentration causing a half-maximal inhibition of control specific binding) and Hill coefficients (nil) were determined by non-linear regression analysis of the competition curves generated with mean replicate values using Hill equation curve fitting (Y=D+[(A−D)/(1+(C/C50)nH)], where Y=specific binding, D=minimum specific binding, A=maximum specific binding, C=compound concentration, C50=IC50, and nH=slope factor). This analysis was performed using a software developed at Cerep (Hill software) and validated by comparison with data generated by the commercial software SigmaPlot® 4.0 for Windows® (© 1997 by SPSS Inc.). The inhibition constants (Ki) were calculated using the Cheng Prusoff equation (Ki=IC50/(1+(L/KD)), where L=concentration of radioligand in the assay, and KD=affinity of the radioligand for the receptor).

For assay [2], the system named is Human platelet rich plasma. The assay can be described thus: TP receptor platelet aggregation, human (U-46619-induced). To be noted: 3 μM U-46619-induced. It counts as cell-based. The protocol: (§1) Thrombosis Research 33:277-288.
TP Receptor Platelet Aggregation—Human:
Human (60±10 kg) platelet rich plasma
Assay. Inhibition of 3 μM U-46619-induced platelet aggregation Incubation Time, Temp: 5 minutes at 37° C. Incubation Buffer Trisodium Citrate (0.13 M)-treated fresh platelet rich plasma
(§2) Time of Assessment: 5 minutes
(§3) Quantification Method Optical Density Change

The target of assay [3] is T3, Thromboxane receptor (TP) (Homo sapiens, UniProt P21731).
T3 construct: expressed in transfected cells; host or cells: HEK-293
T3 sequence (P21731 1-343): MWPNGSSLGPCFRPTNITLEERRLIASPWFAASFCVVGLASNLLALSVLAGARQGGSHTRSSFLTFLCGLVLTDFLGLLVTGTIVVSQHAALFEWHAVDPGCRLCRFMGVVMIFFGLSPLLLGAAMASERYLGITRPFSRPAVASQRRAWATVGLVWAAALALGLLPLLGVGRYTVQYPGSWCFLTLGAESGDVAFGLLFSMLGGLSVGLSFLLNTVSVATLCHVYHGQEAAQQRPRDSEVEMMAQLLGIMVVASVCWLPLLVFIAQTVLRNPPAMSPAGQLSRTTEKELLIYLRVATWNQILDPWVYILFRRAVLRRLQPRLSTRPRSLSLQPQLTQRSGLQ
The assay can be described thus: TP receptor radioligand binding ([3H] SQ-29548). To be noted: Human recombinant HEK-293 cells. As for the experimental part: The compounds were tested on radioligand binding assays for thromboxane receptor binding essentially as described by Hedberg et al. (1988) J. Pharmacol. Exp. Ther. 245:786-792 and Saussy et al. (1986) J. Biol. Chem. 261: 3025-3029 according to the following:
TP Receptor Radioligand Binding Studies:
Human recombinant HEK-293 cells,
Incubation Time, Temp: 30 minutes at 25° C.
Incubation Buffer: 50 mM Tris-HCl, pH 7.4, 154 mM NaCl
Non-Specific Ligand: 1 μM SQ-29548
The data were transformed to semi-log and then analysed using non-linear regression to a four-parameter dose-response curve Y=Bottom+(Top−Bottom)/(1+10̂((LogEC50−X)*HillSlope)) using the log(agonist) vs. response—Variable slope function of GraphPad Prism software (http://graphpad.com/help/prism5/prism5help.html?usitignonlinear_regression_step_by_s.htm).

The test system of assay [4] is arterial thrombosis in a mouse model. Put plainly: Arterial thrombosis mouse model (FeCl3 on femoral artery). The assay is classed as in vivo. To be noted: dose not given. As for the experimental part: The solutions are diluted 3.3-fold in saline and 100 μl/25 g is injected. Thus, the above-mentioned doses of 100 and 300 mg/kg of compound correspond to final doses of 30 and 100 mg/kg.
During the experiments, a soluble salt of the drug is provided (potassium salt of compound C), diluted in saline. Of this formulation, 100 μl/25 g is injected i.v. in the tail vein (dose of 100 mg/kg).
Solutions are injected (100 μl/25 g body weight) i.v. in the tail vein over 2 min to obtain doses of each compound of 30 mg/kg and 100 mg/kg. Aspirin is given the same way at a dose of 200 mg/kg. Clopidogrel is administered by oral gavage at a dose of 20 mg/kg at 6-7 hours prior to the experiment. The animals assigned to each group are matched for body weight. Mice are typically 8-10 weeks old males and are in a 100% Swiss genetic background.
The flow in each image is expressed as a percentage of that at the contralateral side, and data are averaged for all 120 images to determine total flow. The same analysis is performed for 10 min intervals (which gives essentially the same information as the area under the curve). […] Flow before treatment is recorded as 100%, and that in occluded arteries as 0%. At the end of the experiment, blood is collected on 0.01M citrate by heart puncture for determination of blood cell counts. Plasma is prepared by centrifugation and stored at −20° C. for determination of drug levels.
Statistical analysis for differences between two groups is performed by non-parametric Student t-test. Occlusion times >30 min were considered equal to 30 min for statistical analysis. Significance is set at p<0.05.

The subject of assay [5] is New Zealand Rabbit platelet rich plasma. The assay can be described thus: TP receptor platelet aggregation, rabbit (U-46619-induced). It counts as cell-based. As for the experimental part: as §1
TP Receptor Platelet Aggregation—Rabbit:
New Zealand Rabbit (2.75±0.25 kg) platelet rich plasma
Assay: Inhibition of 1.5 μM U-46619-induced platelet aggregation Incubation Time, Temp: 5 minutes at 37° C. Incubation Buffer Trisodium Citrate (0.13 M)-treated platelet rich plasma
as §2, §3

On to `O=C(O)CC/C=C\CC1COC(c2ccccc2Cl)OC1c1ccccc1O` (racemic) [Compound A, (Z)-6-(-2-(2-chlorophenyl)-4-(2-hydroxyphenyl)-1,3-dioxan-5-yl)hex-4-enoic acid], for which the negative logarithm of the IC50 (pIC50) was 4.50 against Thromboxane synthase, 4.89 in assay [1] and 5.82 in assay [2]. Further, the inhibition at 10 µM against Thromboxane synthase (10 μM) came to 16%; in assay [3], 105%. In addition, the pKi in assay [1] was 5.32.
As for `COc1ccc(Oc2ccccc2C2OC[C@@H](C/C=C\CCC(=O)O)[C@@H](c3ccccc3O)O2)cc1` (stereo partly drawn) [Compound 1], the pIC50 at Thromboxane synthase is 6.45. For the same compound, the inhibition at 5 µM against Thromboxane synthase (5 μM) was 71%. Moreover, on Thromboxane synthase (Table 2), the “Inhibition of thromboxane synthase (in words)” value is “inhibitors of thromboxane synthase”. For the same compound, in assay [1], the negative logarithm of the Ki (pKi) is 6.10 and the negative-log IC50 (pIC50) is 5.64. For the same compound, in assay [1] (summary of Table 3), the “PPARgamma binding compared with Compound A (in words)” value is “at least as well as Compound A”. In assay [4], the Occlusion time result was “prolongs the occlusion time” and the Total blood flow entry is on record as “improves total blood flow”. Also, the inhibition at 30 µM in assay [5] (Oryctolagus cuniculus, Platelet, 30 μM, 1.5 μM U-46619-induced) came to 96%. Further, the “Inhibition of platelet aggregation (in words)” value in assay [5] (Table 2) is on record as “potent inhibitors of platelet aggregation”. Besides, the inhibition at 10 µM in assay [3] worked out at 101%. Moreover, in assay [3] (5 nM [3H] SQ-29548), the pIC50 was 8.90 and the pKi was 9.09.
With `O=C(O)CC/C=C\C[C@H]1CO[C@@H](c2ccccc2Cl)O[C@H]1c1ccccc1O` [Compound B, (Z)-6-((2R,4R,5S)-2-(2-chlorophenyl)-4-(2-hydroxyphenyl)-1,3-dioxan-5-yl)hex-4-enoic acid], on Thromboxane synthase (10 μM), the “Thromboxane synthase Human platelet Inhibition (%)” value is recorded as 28% and the inhibition at 10 µM was found to be 25%. The “PPARγ binding (in words)” value in assay [1] (at 30 μM) is “no binding”. For the same compound, the inhibition at 30 µM in assay [2] (30 μM) was found to be 13%. In assay [5] (Oryctolagus cuniculus, Platelet, 0.1 mM, 1.5 μM U-46619-induced), the inhibition at 100 µM came out at 15%.
